Experimental data published in patent publication US8362031B2, “Lonidamine analogues and treatment of polycystic kidney disease” (University of Kansas, priority 2004, dated 2013).

How the values were obtained:
[1] = biological target: Hsp82 (the yeast homologue of Hsp90) (Saccharomyces cerevisiae, UniProt P02829); experiment: Cross-linking of biotinylated analogue to purified protein, competition with excess RC-MC-110; format: binding; details: 10-fold excess of RC-MC-110, purified protein, UV cross-linking
Hsp82 (the yeast homologue of Hsp90), sequence (P02829 whole entry): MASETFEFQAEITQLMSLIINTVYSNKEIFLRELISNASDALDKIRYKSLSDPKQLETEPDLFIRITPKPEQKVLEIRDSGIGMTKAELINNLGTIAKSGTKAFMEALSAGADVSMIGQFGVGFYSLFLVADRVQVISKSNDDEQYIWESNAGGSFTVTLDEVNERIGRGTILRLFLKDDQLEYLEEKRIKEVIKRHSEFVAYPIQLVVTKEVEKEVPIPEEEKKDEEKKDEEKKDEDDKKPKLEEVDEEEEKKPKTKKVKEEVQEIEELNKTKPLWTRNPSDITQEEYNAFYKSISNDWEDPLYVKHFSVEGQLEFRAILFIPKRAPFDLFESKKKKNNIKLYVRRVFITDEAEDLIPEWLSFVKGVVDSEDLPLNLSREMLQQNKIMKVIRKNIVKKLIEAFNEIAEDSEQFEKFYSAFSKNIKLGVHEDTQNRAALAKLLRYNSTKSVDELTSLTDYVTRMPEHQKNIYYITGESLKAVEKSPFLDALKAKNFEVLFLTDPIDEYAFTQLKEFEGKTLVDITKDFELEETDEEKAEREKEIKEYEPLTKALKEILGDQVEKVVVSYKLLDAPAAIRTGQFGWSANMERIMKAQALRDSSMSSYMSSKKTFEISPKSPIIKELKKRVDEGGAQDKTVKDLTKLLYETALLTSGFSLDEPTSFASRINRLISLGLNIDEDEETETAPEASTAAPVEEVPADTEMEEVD
Procedure: In this example, the binding of cross-linked biotinylated RC-MC-110 ([…]) to Hsp82 (the yeast homologue of Hsp90) was investigated by a cross-linking and biotinylated analogue of RC-MC-110.
The buffer solution in this examples was comprised of 50 mM Tris-HCl, pH 7.4, 50 mM NaCl, 5 mM EDTA, and 50 mM NaF.
First, the protein was diluted with the buffer solution above to give a final concentration of 0.278 mg/ml. The stock protein concentration was 22 mg/ml in 5 μl aliquots.
Next the drug was diluted as follows. Stock concentrations of RC-MC-210 (see structure below) were 0.6 mg/ml (cross-linked biotinylated analogue of RC-MC-110). A 300 μl aliquot was thawed, and separated into two 150 μl aliquots. Dilutions were in the order of 1, ½, ¼, ⅛, 1/16 of the stock solutions. The stock concentration of the competition solution was 0.6 mg/ml RC-MC-210 (549 μM), and about 0.9 mg of RC-MC-110 was dissolved in 150 μl of RC-MC-210 solution to give a final concentration of 6 mg/ml (14.5 mM).
The competition solution had the same concentration of RC-MC-210, but a 10-fold excess of RC-MC-110 (non-biotinylated) to its respective concentration (e.g: ½ RC-MC-210, then the RC-MC-110 was 10× that concentration.)
To prepare of the incubation reactions, 18 μl of protein from a 0.277 mg/ml diluted stock (about 5 μg of protein) was incubated with 2 μl of drug for 1 hr at 4° C. with gentle rocking. […]

Male Long Evans rats = experiment: In vivo antispermatogenic testing in Long Evans rats
ADPKD cells [2] = experiment: Mitotic index of ADPKD cells; format: cell-based, human; details: untreated controls 4.1%
Procedure: For the […] shown in FIG. 10C, 5×10^3 ADPKD cells were plated in a 4-well chamber slide. After 24 hours, medium was changed to include 5% FBS. Cells were treated with increasing concentrations of GMZ for 16 hours, fixed with 4% paraformaldehyde and permeabilized with 0.2% Triton-X100. Cells were mounted with DAPI-containing mounting medium and observed by fluorescence microscopy. Eight to ten separate fields were examined at 10× magnification and the number of mitotic figures (nuclei) were counted and expressed as a percentage of the total number of nuclei per field. Statistical analysis was done to compare the GMZ-treated cells to untreated cells at each time point using One-way ANOVA and the Tukey HSD test for pair-wise comparisons.

ADPKD cells [3] = experiment: Phalloidin staining of the actin cytoskeleton; format: cell-based, human; details: increasing concentrations
Procedure: To determine if gamendazole treatment alters actin cytoskeleton dynamics, ADPKD cells were stained with phalloidin and examined by fluorescence microscopy. […] Briefly, ADPKD cells or M-1 cortical collecting duct cells were plated in a 4-well chamber slide in 5% FBS-containing medium. After 24 hours, the cells were treated with increasing concentrations of GMZ. Cells were fixed using 4% paraformaldehyde and permeabilized with 0.2% Triton-X 100. Cells were then incubated for 20 min with TRITC-conjugated phalloidin, washed with PBS and mounted with DAPI-containing mounting medium. Images were captured at 10× (FIG. 13A) or 60× (FIG. 13B), using the same exposure settings for treated and untreated cells. […] Blue (internal staining) indicates DAPI-stained nuclei.

ADPKD cells [4] = experiment: Wound-healing scratch assay (cell migration); format: cell-based, human
Procedure: Gamendazole (GMZ) was tested to determine if it inhibits cell migration. Briefly, ADPKD cells were plated on a 12-well cell culture plate in 5% FBS-containing medium and allowed to form a confluent monolayer. The monolayer was wounded using a P-200 pipette tip and the medium changed to include increasing concentrations of gamendazole. Images of three different fields per well were captured at 10× magnification immediately after wounding and at 4, 8 and 24 hours post-wounding. GMZ was tested at 0, 10, 50, and 100 uM. Area of the wound was measured at each time point using NIH Image J program. Percentage of wound closure was calculated by subtracting the area of the wound at any given time point from the 0 h wound area expressed as a percentage of the 0 h wound area. Statistical analysis was done to compare the GMZ-treated cells to untreated cells at each time point using One-way ANOVA and the Tukey HSD test for pair-wise comparisons.

Cdk4 = experiment: Western blot of treated ADPKD cells; format: cell-based, human; details: 50 uM
Procedure: (§1) Gamendazole (GMZ) was tested to determine if treatment decreases Hsp90 client protein levels in ADPKD cells. Briefly, ADPKD cells were treated with 50 μM GMZ for 24, 48 or 72 hours. Proteins from 20 μg total cell lysate were separated by SDS-PAGE, transferred to a PVDF membrane and probed with antibodies against the Hsp90 client proteins ErbB2 (185 kD), and cdk4 (34 kD).

ErbB2 = experiment: Western blot of treated ADPKD cells; format: cell-based, human; details: 50 uM
Procedure: as §1

rats = experiment: Animal tolerance studies of GMZ; format: in vivo, rat
From the text: The parent compound of GMZ, Lonidamine, inhibits the chloride channel CFTR, interferes with cellular energy output and has been used as an anticancer drug. […] GMZ binds directly to Hsp90-beta and eukaryotic elongation factor eEF1A as shown by affinity chromatography and direct binding studies.

| Structure (SMILES) | Competition of the binding of the cross-linked biotinylated analogue to Hsp82 [1] | Mortality (25 mg/kg) (Male Long Evans rats; 25 mg/kg single i.p. injection, […]) | Response 25 mg/kg (Male Long Evans rats; 25 mg/kg single i.p. injection, animals responding out of animals surviving, five days following injection) | Mortality (200 mg/kg) (Male Long Evans rats; 200 mg/kg single i.p. injection, […]) | Response 200 mg/kg (Male Long Evans rats; 200 mg/kg single i.p. injection, animals responding out of animals surviving, five days following injection) | mitotic index (ADPKD cells [2]; 50 μM for 16 h) | mitotic index (ADPKD cells [2]; 100 μM for 16 h, p<0.01) | Cell morphology, actin cytoskeleton (ADPKD cells [3]) | cell migration (percentage of wound closure) (ADPKD cells [4]; 10, 50 and 100 uM, 4, 8 and 24 hours post-wounding) | wound closure (ADPKD cells [4]; even at low concentration (10 uM)) | levels of the Hsp90 client protein Cdk4 (Cdk4) | levels of the Hsp90 client protein ErbB2 (ErbB2) | histopathology (rats; 25 mg/kg of IP dosage) | behavioral or body weight changes (rats; rats, five days post-treatment) |
| --- | --- | --- | --- | --- | --- | --- | --- | --- | --- | --- | --- | --- | --- | --- |
| O=C(O)/C=C/c1nn(Cc2ccc(Cl)cc2Cl)c2cc(C(F)(F)F)ccc12 [RC-MC-110, trans 3-[1-(2,4-dichlorobenzyl)-6-trifluoromethyl-1H-indazol-3-yl]-acrylic acid] | the binding competes with excess RC-MC-110 | 0/5 | 5/5 | 3/5 | 2/2 |  |  |  |  |  |  |  |  |  |
| O=C(O)CCc1nn(Cc2ccc(Cl)cc2Cl)c2cc(C(F)(F)F)ccc12 [GMZ, 3-[1-(2,4-dichlorobenzyl)-6-trifluoromethyl-1H-indazol-3-yl]-propionic acid] |  |  |  |  |  | 2.6% | 1.7% | smaller, without leading edges and with less filamentous actin | significant inhibition of cell migration at all concentrations of GMZ tested and at all time points | unable to accomplish wound closure | decreased levels | decreased levels | no apparent histopathology in any organ | no evidence of behavioral or body weight changes |
